From the SangsterLogP compilation come the findings set out here.

As a reminder, the logP is the decadic logarithm of the partition coefficient of the neutral form, usually between octanol and water. A low value points to a more hydrophilic compound. One may read the logD as lipophilicity at a set pH, counting ionised and neutral species. A low value points to lower lipophilicity.

Each structure is given as a SMILES string.

Test in the first data set: not given
Settings: not given
In turn, `CCC1(c2ccccc2)C(=O)N=C(OC(C)C)NC1=O` (stereo not drawn) returned a lipophilicity (logP) of 1.79.

`CCC1(c2ccccc2)C(=O)NC(=O)N=C1OC(C)C` (stereo not drawn): the logP was found to be 2.22.

Turning to `CCC1(CC)C(=O)NC(=O)N(C(C)C)C1=O`, the log partition coefficient (logP) is 2.36.

Molecule `CCC1(CC)C(=O)N=C(OC(C)C)NC1=O` registered a logP of 1.44.

Test in another data set: not given
Settings: not given
This is another data set of the same source.
On to `CC1(C)C(/C=C(\Cl)C(F)(F)F)C1C(=O)OC(C#N)c1cccc(Oc2ccccc2)c1` (stereo not drawn), for which the logP is 6.02.

Take `COCc1ccc(COC(=O)C2C(C=C(C)C)C2(C)C)cc1` (stereo not drawn): the lipophilicity (logP) turned out to be 4.5.

`C#CCc1ccc(COC(=O)C2C(C=C(C)C)C2(C)C)o1` (stereo not drawn): the logP came out at 6.67.

For the molecule `CC(=O)OC(c1ccc(Cl)c(Cl)c1)C(Cl)(Cl)Cl` (stereo not drawn), the logP is 4.92.

Test in a further data set: not given
Settings: not given
The source holds these as a separate data set.
In turn, `CCOC(=O)OC[C@@H]1O[C@H](n2ccc(N)nc2=O)CS1` had a logP of -0.25.

`CCCCCOC(=O)OC[C@@H]1O[C@H](n2ccc(N)nc2=O)CS1` returned a logP of 1.2.

Take `CC(C)OC(=O)OC[C@@H]1O[C@H](n2ccc(N)nc2=O)CS1`: the logP was 0.1.

In turn, `CCCOC(=O)OC[C@@H]1O[C@H](n2ccc(N)nc2=O)CS1` registered a logP of 0.22.

Test in a further data set: not given
Settings: not given
This is another data set of the same source.
In turn, `O=S(=O)(Nc1cc(Cl)c(Cl)cc1Cl)c1c(O)c(Cl)cc(Cl)c1Cl` had a logP of 4.36.

For `O=S(=O)(Nc1cc(Cl)c(Cl)cc1Cl)c1cc(Cl)cc(Cl)c1O`, the log partition coefficient (logP) stood at 4.32.

`O=S(=O)(Nc1ccccc1Cl)c1c(O)c(Cl)cc(Cl)c1Cl` returned a logP of 3.97.

`O=S(=O)(Nc1ccc(O)cc1)c1cc(Cl)cc(Cl)c1Cl` had a logP of 4.18.

Test in the next data set: not given
Settings: not given
This is another data set of the same source.
For the molecule `O=C(NN(C(=O)c1ccc([N+](=O)[O-])cc1)c1ccccc1)c1ccc([N+](=O)[O-])cc1`, the log partition coefficient (logP) amounted to 4.18.

Regarding `COc1ccc(C(=O)NNC(=O)c2ccccc2)cc1`, the logP is 1.6.

In turn, `O=C(NNC(=O)c1ccc([N+](=O)[O-])cc1)c1ccc([N+](=O)[O-])cc1` returned a logP of 2.07.

Consider `Cc1ccc(C(=O)NNC(=O)c2ccccc2)cc1`, for which the logP was 1.88.

Test in the next data set: not given
Settings: not given
The source holds these as a separate data set.
The molecule `CCOC(=O)c1ccc2cccccc1-2` showed a logP of 3.83.

As to `NC(=O)Cc1ccc2cccccc1-2`, the logP was determined as 2.48.

`O=[N+]([O-])c1ccc2cccccc1-2` displayed a logP of 2.59.

The data set is the same for the next values; noted with them: pH 3.4.
Consider `O=C(O)c1ccc2cccccc1-2`, for which the logD turned out to be 2.88.

Test in another data set: not given
Settings: not given
The source holds these as a separate data set.
As to `Cc1ncc2c(c1O)COC2c1ccc(Cl)cc1` (stereo not drawn), the logP was 2.34.

For `Cc1ccc(Cc2cnc(NCCCCc3ncc(Br)cc3C)[nH]c2=O)cn1`, the logP worked out at 3.19.

A short description of another data set: method code SF-AS, from PMID: 8197227. Particulars: pH 7.4.
`NC(=S)NNC(=O)c1ccc2c(c1)OCO2` registered a logD of 0.21.

`Cc1csc(NNC(=O)c2ccc3c(c2)OCO3)n1` returned a logD of 1.41.

On to `C(=NNc1nccs1)c1ccc2c(c1)OCO2`, for which the logD came out at 1.5.

`O=C(NNc1nccs1)c1ccc2c(c1)OCO2` registered a logD of 1.06.

Test in the next data set: not given
Settings: not given
This is another data set of the same source.
For `S=c1ssc2c1CCCCCCCCCC2`, the lipophilicity (logP) stood at 5.8.

As for `CCc1c(-c2ccccc2)ssc1=S`, the logP turned out to be 4.31.

The molecule `CC1(C)C2Cc3ssc(=S)c3C1C2` (stereo not drawn) returned a log partition coefficient (logP) of 3.52.

`S=c1ssc(Cc2ccccc2)c1-c1ccccc1` registered a logP of 4.29.

Test in the next data set: not given
Settings: not given
This is another data set of the same source.
The molecule `Cc1ccccc1CCN` showed a logP of 1.6.

The molecule `Cc1ccc(CCN)cc1` yielded a log partition coefficient (logP) of 1.83.

Molecule `NCCCCc1ccccc1` had a lipophilicity (logP) of 2.25.

Consider `OCCCNc1ccccc1`, for which the logP was 0.57.

Test in the next data set: not given
Settings: not given
This is another data set of the same source.
Turning to `O=C(O)CCCCCCCCCCCOC(=O)Oc1ccccc1`, the logP stood at 4.26.

With `O=C(O)CCCCCCCOC(=O)Oc1ccccc1`, the logP worked out at 3.39.

Test in the next data set: not given
Settings: not given
This is another data set of the same source.
For `CCCCNCc1ccc(C)cc1`, the logP was found to be 3.49.

With `CCNCc1ccc(C)cc1`, the logP was 2.38.

The molecule `CCCCCCCNCc1ccc(C)cc1` had a logP of 5.12.

`CCCCCCNCc1ccc(C)cc1` had a logP of 4.96.

Test in a further data set: not given
Settings: not given
The source holds these as a separate data set.
Regarding `Clc1cccc2c1CCNCC2`, the logP amounted to 2.4.

Molecule `CCCN1CCc2cccc(Cl)c2CC1` gave a logP of 3.5.

Molecule `COCCN1CCc2cccc(Cl)c2CC1` returned a logP of 3.

In turn, `CS(=O)(=O)NCCN1CCc2cccc(Cl)c2CC1` came in with a logP of 2.51.

Test in a further data set: not given
Settings: not given
This is another data set of the same source.
Consider `O=C(CCCCC1CCSS1)NCCN1CCOCC1` (stereo not drawn), for which the logP amounted to 1.8.

`CCCCCOC(=O)NCCN1CCOCC1` gave a log partition coefficient (logP) of 2.8.

`CC1CN(CCNC(=O)OCCCCCC2CCSS2)CC(C)O1` (stereo not drawn): the logP stood at 4.2.

As to `O=C(NCCN1CCOCC1)OCCCCCC1CCSS1` (stereo not drawn), the logP is 2.9.

Another data set can be described thus: method code G-GLC, from DOI: 10.1021/je00036a027.
Settings: not given
`Clc1cc(Cl)c(-c2ccccc2)c(Cl)c1`: the log partition coefficient (logP) was 5.47.

As to `Clc1cccc(Cl)c1-c1ccccc1`, the logP amounted to 4.93.

For `Clc1cc(Cl)c(-c2ccccc2)cc1Cl`, the logP amounted to 5.51.

For `Clc1c(Cl)c(Cl)c(-c2ccccc2)c(Cl)c1Cl`, the logP was 6.3.

A short description of the next data set: method code SF-AS, from DOI: 10.1002/ps.2780370107. Particulars: pH 0.0.
With `CCOP(=O)(O)Cc1ccc(-c2ccccc2)cc1`, the logD was 2.37.

The molecule `CCOP(=O)(O)Cc1ccccc1` registered a logD of 0.81.

The molecule `CCOP(=O)(O)Cc1ccc(F)cc1` yielded a pH-dependent lipophilicity (logD) of 1.25.

Regarding `CCOP(=O)(O)Cc1ccc(S(C)(=O)=O)cc1`, the logD is -0.4.

A short description of the next data set: method code SF-HPLC, from DOI: 10.1002/ps.2780310207.
Settings: not given
`CC(C)(Cn1cncn1)c1ccc(F)cc1`: the logP came to 1.74.

Regarding `Clc1ccc(C2(Cn3cncn3)CC2)cc1`, the logP is 2.21.

`Clc1ccc(C2(Cn3cncn3)CCC2)cc1`: the logP was 2.13.

On to `Fc1ccc(C2(Cn3cncn3)CCC2)cc1`, for which the logP is 1.93.

The next data set is described as follows: method code SF-GLC, from DOI: 10.1016/s0021-9673(01)83612-8. To be noted: pH 13.0.
`CN[C@H](C)[C@@H](OC)c1ccccc1` (relative stereo) displayed a logD of 1.87.

Take `CC(N)CC1CCCCCCC1` (stereo not drawn): the logD is 3.7.

Molecule `CNCCCCc1ccccc1` had a logD of 2.76.

As for `NC1CCc2ccccc2C1` (stereo not drawn), the logD worked out at 2.08.

Another data set is described as follows: method code SF-AS, from DOI: 10.1248/cpb.39.458, PMID: 1829027. Particulars: pH 7.0.
`CCCCC(=O)OC[C@H]1O[C@@H](n2cc(F)c(=O)[nH]c2=O)C[C@@H]1OC(=O)CCCC` yielded a logD of 2.72.

Molecule `CCCCCCCC(=O)OCC1OC(n2cc(F)c(=O)[nH]c2=O)CC1OC(=O)CCCCCCC` (stereo not drawn) gave a logD of 6.05.

As to `CC(=O)OCC1OC(n2cc(F)c(=O)[nH]c2=O)CC1OC(C)=O` (stereo not drawn), the logD is -0.34.

Regarding `CCCCCC(=O)OCC1OC(n2cc(F)c(=O)[nH]c2=O)CC1OC(=O)CCCCC` (stereo not drawn), the logD was determined as 4.25.

The next data set can be described thus: method code SF, from DOI: 10.1021/jm061062o.s001, PMID: 17326614. To be noted: pH 7.4.
In turn, `CS(=O)(=O)CCN(CCI)c1cc(C(N)=O)c([N+](=O)[O-])cc1[N+](=O)[O-]` returned a logD of 0.74.

Regarding `CS(=O)(=O)c1cc([N+](=O)[O-])c(C(N)=O)cc1N(CCBr)CCBr`, the logD amounted to 1.18.

`CS(=O)(=O)CCN(CCS(C)(=O)=O)c1cc(C(N)=O)c([N+](=O)[O-])cc1[N+](=O)[O-]`: the logD is -0.7.

Take `CS(=O)(=O)CCN(CCCl)c1cc(C(N)=O)c([N+](=O)[O-])cc1[N+](=O)[O-]`: the logD is 0.42.

A further data set can be described thus: method code SF-AS, from DOI: 10.1023/a:1016392123137, PMID: 24272811. To be noted: pH 9.0.
As for `Nc1nc(-c2ccccn2)cc2ccccc12`, the logD was 2.74.

`Cc1cccc2cc(-c3ccccn3)nc(N)c12` displayed a logD of 3.05.

In the case of `Cc1cccc(-c2cc3ccccc3c(N)n2)n1`, the pH-dependent lipophilicity (logD) turned out to be 3.18.

On to `c1ccc(-c2cc3ccccc3cn2)nc1`, for which the logD came to 3.05.

The next data set in a line: from Sparatore, F.; Grieco, C.; Silipo, C.; Vittoria, A. (1979). Use of regression analysis to correlate auxin activity with chemical physical and structural properties of benzotriazole derivatives. III. …. Particulars: pH 5.6.
Take `OCCCCn1nc2ccccc2n1`: the logD is 1.57.

In turn, `OCCCCn1nnc2ccccc21` displayed a logD of 1.03.

`OCCCCCn1nc2ccccc2n1` displayed a logD of 1.93.

For `OCCCCCCn1nnc2ccccc21`, the logD amounted to 1.71.

The nature of the next data set: method code SF-AS, from M. Kuchar, J. Tomkova, V. Rejholec, & O. Roubinek. (1992). Some problems of the chromatographic evaluation of lipophicity. In Kuchar, M. (Ed.) QSAR in Design of Bioactive Compounds (pp. 65-81). Prous …. Particulars: pH 3.4.
`CC(C)Cc1ccc(CC(=O)O)cc1` yielded a logD of 3.35.

As to `COc1ccc(C(O)C(=O)O)cc1` (stereo not drawn), the logD was 0.63.

Take `CCCCCCOc1ccc(CC(=O)O)cc1`: the logD was 3.96.

In turn, `O=C(O)CCc1ccc(OCc2ccccc2)c(Cl)c1` had a logD of 3.89.
